Results: patent US5081152A, “Azulene derivatives as thromboxane A2 and prostaglandin endoperoxide receptor antagonist” (Kotobuki Seiyaku Co., Ltd., priority 1989, dated 1992)
Counter-ions that a name gives are not always drawn.

Target: T1, Thromboxane A2 receptor (Rattus norvegicus, UniProt P34978)
T1 sequence (P34978 1-341): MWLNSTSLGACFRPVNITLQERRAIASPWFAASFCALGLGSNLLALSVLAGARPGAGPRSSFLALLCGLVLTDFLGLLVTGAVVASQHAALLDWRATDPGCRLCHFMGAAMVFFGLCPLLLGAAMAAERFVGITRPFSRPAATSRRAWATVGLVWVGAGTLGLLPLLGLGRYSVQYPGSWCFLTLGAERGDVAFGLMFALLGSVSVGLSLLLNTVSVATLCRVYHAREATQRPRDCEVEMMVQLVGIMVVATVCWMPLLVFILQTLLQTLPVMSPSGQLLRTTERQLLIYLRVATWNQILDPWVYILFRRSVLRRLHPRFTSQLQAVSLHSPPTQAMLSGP
Experiment: Thromboxane A2 receptor antagonistic action (inhibitory action of U-46619-induced contractions of rat aortic strips)
Format: cell-based
Conditions: isolated helical strips of rat aorta precontracted with 3×10^-8 M U-46619; read-out: IC50 (the concentrations which inhibited the contraction by 50%)

| IC50 [nM] | SMILES |
| --- | --- |
| 21000 | O=C(O)c1cc(CCNS(=O)(=O)c2ccccc2)c2cccccc1-2 [Compound 1, 3-[2-(Benzenesulfonylamino)ethyl]-azulene-1-carboxylic acid] |
| 570 | O=C(O)c1cc(CCCCNS(=O)(=O)c2ccccc2)c2cccccc1-2 [Compound 3, 3-[4-(Benzenesulfonylamino)butyl]-azulene-1-carboxylic acid] |
| 140 | O=C(O)c1cc(CCCCCCNS(=O)(=O)c2ccccc2)c2cccccc1-2 [Compound 5, 3-[6-(Benzenesulfonylamino)hexyl]-azulene-1-carboxylic acid] |
| 15000 | O=C(O)c1cc(CCCCCCCCNS(=O)(=O)c2ccccc2)c2cccccc1-2 [Compound 7, 3-[8-(Benzenesulfonylamino)octyl]-azulene-1-carbaxylic acid] |
| 3100 | CC(C)c1cccc2c(CCCCNS(=O)(=O)c3ccccc3)cc(C(=O)O)c-2c1 [Compound 10, 7-Isopropyl-3-[4-(benzenesulfonylamino)butyl]-azulene-1-carboxylic acid] |
| 920 | CC(C)c1cccc2c(CCCCCCNS(=O)(=O)c3ccccc3)cc(C(=O)O)c-2c1 [Compound 12, 7-Isopropyl-3-[6-(benzenesulfonylamino)hexyl]-azulene-1-carboxylic acid] |
| 21000 | CC(C)c1cccc2c(CCNS(=O)(=O)c3ccccc3)cc(C=CC(=O)O)c-2c1 [Compound 14, 3-[7-Isopropyl-3-(2-(benzenesulfonylamino)ethyl)-azulene-1-yl]-2-propenoicacid] |
| 60000 | CC(C)c1ccc2c(CCNS(=O)(=O)c3ccccc3)cc(C(=O)O)c-2cc1 [Compound 15, 6-Isopropyl-3-[2-(benzenesulfonylamino)ethyl]-azulene-1-carboxylic acid] |
| 78 | CC(C)c1ccc2c(CCCCNS(=O)(=O)c3ccccc3)cc(C(=O)O)c-2cc1 [Compound 17, 6-Isopropyl-3-[4-(benzenesulfonylamino)butyl]-azulene-1-carboxylic acid] |
| 70 | CC(C)c1ccc2c(CCCCCCNS(=O)(=O)c3ccccc3)cc(C(=O)O)c-2cc1 [Compound 19, 6-Isopropyl-3-[6-(benzenesulfonylamino)hexyl]-azulene-1-carboxylic acid] |
| 20 | Cc1ccc(S(=O)(=O)NCCCCc2cc(C(=O)O)c3ccc(C(C)C)ccc2-3)cc1 [Compound 22, 6-Isopropyl-3-[4-(4-methylbenzenesulfonylamino)butyl]-azulene-1-carboxylicacid] |
| 16 | COc1ccc(S(=O)(=O)NCCCCc2cc(C(=O)O)c3ccc(C(C)C)ccc2-3)cc1 [Compound 23, 6-Isopropyl-3-[4-(4-methoxybenzenesulfonylamino)butyl]-azulene-1-carboxylic acid] |
| 11 | CC(C)c1ccc2c(CCCCNS(=O)(=O)c3ccc(F)cc3)cc(C(=O)O)c-2cc1 [Compound 24, 6-Isopropyl-3-[4-(4-fluorobenzenesulfonylamino)butyl]-azulene-1-carboxylicacid] |
| 5.3 | CC(C)c1ccc2c(CCCCNS(=O)(=O)c3ccc(Cl)cc3)cc(C(=O)O)c-2cc1 [Compound 25, 6-Isopropyl-3-[4-(4-chlorobenzenesulfonylamino)butyl]-azulene-1-carboxylicacid] |
| 43 | CC(C)c1ccc2c(CCCCNS(=O)(=O)c3ccc(Cl)c(Cl)c3)cc(C(=O)O)c-2cc1 [Compound 26, 6-Isopropyl-3-[4-(3,4-dichlorobenzenesulfonylamino)butyl]-azulene-1-carboxylic acid] |
| 5.3 | CC(C)c1ccc2c(CCCCNS(=O)(=O)c3ccc(Br)cc3)cc(C(=O)O)c-2cc1 [Compound 27, 6-Isopropyl-3-[4-(4-bromobenzenesulfonylamino)butyl]-azulene-1-carboxylic acid] |
| 5.1 | CC(C)c1ccc2c(CCCCNS(=O)(=O)c3ccc(I)cc3)cc(C(=O)O)c-2cc1 [Compound 28, 6-Isopropyl-3-[4-(4-iodobenzenesulfonylamino)butyl]-azulene-1-carboxylic acid] |
| 12 | CC(C)c1ccc2c(CCCCNS(=O)(=O)c3ccc(C(F)(F)F)cc3)cc(C(=O)O)c-2cc1 [Compound 31, 6-Isopropyl-3-[4-(4-trifluoromethylbenzenesulfonylamino)butyl]-azulene-1-carboxylic acid] |
| 13 | CC(C)c1ccc2c(CCCCNS(=O)(=O)c3ccc([N+](=O)[O-])cc3)cc(C(=O)O)c-2cc1 [Compound 32, 6-Isopropyl-3-[4-(4-nitrobenzenesulfonylamino)butyl]-azulene-1-carboxylic acid] |

| IC50 [nM] | SMILES |
| --- | --- |
| 300 | CC(C)c1ccc2c(CCCCNS(=O)(=O)c3ccccc3)cc(CC(=O)O)c-2cc1 [Compound 33, 2-[6-Isopropyl-3-[4-(benzenesulfonylamino)butyl]-azulene-1-yl]-acetic acid] |
| 2400 | CC(C)c1ccc2c(C=CC(=O)O)cc(CCCCNS(=O)(=O)c3ccccc3)c-2cc1 [Compound 36, 3-[6-Isopropyl-3-[4-(benzenesulfonylamino)butyl]-azulene-1-yl]-2-propenoicacid] |
| 10000 | CC(C)c1ccc2c(CCCCN(C)S(=O)(=O)c3ccccc3)cc(C(=O)O)c-2cc1 [Compound 37, 6-Isopropyl-3-[4-(N-methylbenzenesulfonylamino)butyl]-azulene-1-carboxylicacid] |
| 4400 | CC(C)c1ccc2c(CCCCNC(=O)c3ccccc3)cc(C(=O)O)c-2cc1 [Compound 41, 6-Isopropyl-3-[4-(benzoylamino)butyl]-azulene-1-carboxylic acid] |
| 4.4 | CC(C)c1ccc2c(CCCCNS(=O)(=O)c3ccc(F)cc3)cc(S(=O)(=O)O)c-2cc1 [Compound 47, 6-Isopropyl-3-[4-(P-fluorobenzenesulfonylamino)butyl]-azulene-1-sulfonic acid sodium salt] |
| 1.7 | CC(C)c1ccc2c(CCCCNS(=O)(=O)c3ccc(Cl)cc3)cc(S(=O)(=O)O)c-2cc1 [Compound 48, 6-Isopropyl-3-[4-(P-chlorobenzenesulfonylamino)butyl]-azulene-1-sulfonic acid sodium salt] |
| 15 | CC(C)c1ccc2c(CCCCNS(=O)(=O)c3ccc(Cl)c(Cl)c3)cc(S(=O)(=O)O)c-2cc1 [Compound 49, 6-Isopropyl-3-[4-(3,4-dichlorobenzenesulfonylamino)butyl-azulene-1-sulfonic acid sodium salt] |
| 1.7 | CC(C)c1ccc2c(CCCCNS(=O)(=O)c3ccc(Br)cc3)cc(S(=O)(=O)O)c-2cc1 [Compound 50, 6-Isopropyl-3-[4-(P-bromobenzenesulfonylamino)butyl]-azulene-1-sulfonic ac id sodium salt] |
| 1.6 | CC(C)c1ccc2c(CCCCNS(=O)(=O)c3ccc(I)cc3)cc(S(=O)(=O)O)c-2cc1 [Compound 51, 6-Isopropyl-3-[4-(P-iodobenzenesulfonylamino)butyl]-azulene-1-sulfonicacid sodium salt] |
| 210 | CC(C)c1ccc2c(C(=O)O)cc([C@H](C)CCCNS(=O)(=O)c3ccccc3)c-2cc1 [Compound 54, 6-isopropyl-3-[(1R)-methyl-4-(benzenesulfonylamino)butyl]-azulene-1-carbolxylic acid] |
| 44 | CC(C)c1ccc2c(C(=O)O)cc([C@@H](C)CCCNS(=O)(=O)c3ccccc3)c-2cc1 [Compound 55, 6-isopropyl-3-[(1S)-methyl-4-(benzenesulfonylamino)butyl]-azulene-1-carboxylic acid] |
| 160 | CC(C)c1ccc2c(C[C@H](C)CCNS(=O)(=O)c3ccccc3)cc(C(=O)O)c-2cc1 [Compound 56, 6-isopropyl-3-[(2S)-methyl-4-(benzenesulfonylamino)butyl]-azulene-1-carboxylic acid] |
| 36 | CC(C)c1ccc2c(C[C@@H](C)CCNS(=O)(=O)c3ccccc3)cc(C(=O)O)c-2cc1 [Compound 57, 6-isopropyl-3-[(2R)-methyl-4-(benzenesulfonylamino)butyl]-azulene-1-carboxylic acid] |
| 35 | CC(C)c1ccc2c(CC[C@@H](C)CNS(=O)(=O)c3ccccc3)cc(C(=O)O)c-2cc1 [Compound 58, 6-isopropyl-3-[(3R)-methyl-4-(benzenesulfonylamino)butyl]-azulene-1-carboxylic acid] |
| 16 | CC(C)c1ccc2c(CC[C@H](C)CNS(=O)(=O)c3ccccc3)cc(C(=O)O)c-2cc1 [Compound 59, 6-isopropyl-3-[(3S)-methyl-4-(benzenesulfonylamino)butyl]-azulene-1-carboxylic acid] |
| 50 | CC(C)c1ccc2c(CCC[C@H](C)NS(=O)(=O)c3ccccc3)cc(C(=O)O)c-2cc1 [Compound 62, 6-isopropyl-3-[(4S)-(benzenesulfonylamino)pentyl]-azulene-1-carboxylicacid] |
| 420 | CC(C)c1ccc2c(CCC[C@@H](C)NS(=O)(=O)c3ccccc3)cc(C(=O)O)c-2cc1 [Compound 63, 6-isopropyl-3-[(4R)-(benzenesulfonylamino)pentyl]-azulene-1-carboxylicacid] |
| 690 | CC(C)c1ccc2c(CC(C)(C)CCNS(=O)(=O)c3ccccc3)cc(C(=O)O)c-2cc1 [Compound 64, 6-isopropyl-3-[2,2-dimethyl-4-(benzenesulfonylamino)butyl]-azulene-1-carboxylic acid] |
| 50 | CC(C)c1ccc2c(CCC(C)(C)CNS(=O)(=O)c3ccccc3)cc(C(=O)O)c-2cc1 [Compound 65, 6-isopropyl-3-[3,3-dimethyl-4-(benzenesulfonylamino)butyl]-azulene-1-carboxylic acid] |
